Experimental data from patent publication US7063946B2, “Methods, reagents, kits and apparatus for protein function analysis” (Meso Scale Technologies, LLC., priority 2001, dated 2006).

Experiments:
[1] = target: T1, IkBa peptide [SEQ ID No. 1] (Homo sapiens, UniProt P25963); assay: Phosphopeptide binding assay, peptide-BSA coated IPR plate
T1 construct: two phosphoserines in the DSGLDS motif (chemical modification); purchased New England Peptide, Fitchburg Mass; host or cells: chemical synthesis
T1 sequence (P25963 with tags, fused parts or gaps limits assumed): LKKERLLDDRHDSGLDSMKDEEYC
Source text: (§1) A phosphopeptide derived from the IkBa degradation motif (SEQ ID NO: 1) and a phosphopeptide derived from c-Myc (SEQ ID NO: 4) were chemically synthesized (New England Peptide, Fitchburg Mass.) with the following sequences respectively:
A maleimide pre-activated BSA (Pierce, Pittsburgh Pa.), which contains estimated 17 active maleimide groups on the protein surface, was used as the protein carrier, and was supplied as a lyophilized preparation. Coupling of the IkBa peptide (SEQ ID NO: 1) to the pre-activated BSA was carried out with 2 mg BSA (30 nmol) and 17 equivalents of the 25 residue phosphopeptide in 400 μl PBS. The reaction was terminated with 2 mM […] after incubation at room temperature for 30 minutes. The peptide:BSA conjugate was then purified on PD-10 gel filtration column to remove uncoupled peptide and analyzed with SDS PAGE to monitor the coupling reaction. […] After coupling and purification, the column fractions containing the peptide:BSA conjugates were pooled and the protein concentration of the pooled samples was determined by BCA assay (Pierce, Pittsburgh Pa.). NaN3, (0.02%) was added to the final peptide:BSA conjugate sample for long term storage at 4° C. […]
Two βTRCP genes, βTRCP1 and βTRCP2, are present in the human genome on chromosome 5 and 10, respectively. […] The ECL signals were measured using an imaging plate reader (IPR).

[2] = target: T2, c-Myc peptide [SEQ ID No. 4] (Homo sapiens, UniProt P01106); assay: as above
T2 construct: phosphothreonine (T58) and phosphoserine (S62) (chemical modification); purchased New England Peptide, Fitchburg Mass; host or cells: chemical synthesis
T2 sequence (P01106 with tags, fused parts or gaps limits assumed): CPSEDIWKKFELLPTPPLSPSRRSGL
Procedure: as §1
To prepare IPR plates for use in the assay, approximately 2.4 pmol BSA, 1.2 pmole IκBα-24pp peptide-BSA conjugate or 1.2 pmole of Myc-p58Tp62S peptide-BSA conjugate in 2.5 μl were deposited on the carbon working electrode surface in a single well of a 96-well plate. At this stage, the plates were dried then used or stored under desiccated condition. A few hours prior to usage, the plates were rehydrated and blocked with 3% BSA, in PBS.
Two βTRCP genes, βTRCP1 and βTRCP2, are present in the human genome on […], respectively. The coding sequence of these two genes shares over 90% identity and several full-length cDNAs of which are available as EST clones from Incyte (Palo Alto, Calif.) IMAGE #3491843 and 4237375. Also included were three other non specific EST clones as controls (Incyte, Palo alto, Calif.). […] These DNAs were used to produce the βTRCP protein and proteins encoded by the other DNAs as described in the Example 7. Proteins were transferred into wells of the peptide-coated and BSA-blocked IPR plates. […] The ECL signals were measured using an imaging plate reader (IPR).

LCK = target: T3, LCK (Homo sapiens, UniProt P06239); assay: Kinase inhibitor profiling, pEY phosphorylation; type: biochemical
T3 construct: specificity data for proteins generated from a library of eighteen full-length clones; host or cells: rabbit reticulocyte lysate, TnT coupled in vitro transcription/translation (cell-free)
T3 sequence (P06239 whole entry): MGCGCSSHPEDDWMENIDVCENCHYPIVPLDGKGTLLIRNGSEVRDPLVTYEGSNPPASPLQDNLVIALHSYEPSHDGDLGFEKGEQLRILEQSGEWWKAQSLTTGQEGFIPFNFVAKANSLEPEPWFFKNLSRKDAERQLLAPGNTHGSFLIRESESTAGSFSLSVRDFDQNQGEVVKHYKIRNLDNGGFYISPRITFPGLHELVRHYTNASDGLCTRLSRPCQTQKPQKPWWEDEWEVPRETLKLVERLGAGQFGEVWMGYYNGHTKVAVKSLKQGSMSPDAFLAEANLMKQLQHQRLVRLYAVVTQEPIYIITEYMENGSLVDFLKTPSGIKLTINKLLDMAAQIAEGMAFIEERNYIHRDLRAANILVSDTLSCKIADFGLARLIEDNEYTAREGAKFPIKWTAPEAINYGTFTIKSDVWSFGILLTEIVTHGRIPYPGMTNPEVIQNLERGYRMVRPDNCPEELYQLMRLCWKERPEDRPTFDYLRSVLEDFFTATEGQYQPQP
Procedure: (§2) Proteins were produced in an in vitro transcription and translation reaction. […] The unbound components of the reaction containing endogenous kinases were removed by three washes with TT-buffer (25 mM Tris-HCl buffer pH 7.4 and 0.004% Triton), two five minutes washings with high-salt wash buffer (25 mM Tris-HCl buffer pH 7.4, 0.004% Triton, 1M NaCl and 5 mM DTT) and 3 more washes with TT-buffer. To these immobilized and purified proteins a tyrosine kinase substrate, 5 nM pEY (poly Glu-Tyr, Sigma, MO), was added in a 50 μl reaction solution containing 5 mM MgCl2, 5 mM MnCl2, 100 μM ATP, 25 mM Tris-HCl buffer pH 7.4, 0.05 mM Na3VO4, 0.004% TritonX-100, 2 mM DTT and EDTA-free protease inhibitor (Roche Molecular Biochemicals). This mixture was incubated with shaking at room temperature overnight to allow phosphorylation of the pEY substrate by the immobilized kinases. Following this incubation, 45 μl of this mixture was transferred to a streptavidin or avidin-coated NPT IPR plate coated with biotinylated anti-phosphotyrosine antibody (PY20, Zymed labs, CA) followed by incubation for 30 minutes at room temperature to allow the binding of the phosphorylated pEY substrate to the PY20 coated NPT plate. Following this binding step, 50 ng Sulfo-TAG labeled anti-phosphotyrosine in buffer containing 25 mM Tris-HCl buffer pH 7.4, 5 mM MgCl2, 0.05 mM Na3VO4, 0.004% TritonX-100, 2 mM DTT and 0.05% IgG was added followed by incubation at room temperature for 30 mm. The unbound reagents were removed by one time washing with water, and the TAG label was detected in presence of 150 μl IPR assay buffer (0.4 mM Gly-Gly buffer, pH 7.8, 1 mM EDTA, 0.1 M TPA). The ECL signals were measured using an imaging plate reader.
(§3) The unbound components of the translation reaction (including any endogenous kinases) were removed by 3 washes with TT-buffer (25 mM Tris-HCl buffer pH 7.4 and 0.004% Triton), two five minutes washes with high-salt wash buffer (25 mM Tris-HCl buffer pH 7.4, 0.004% Triton, 1M NaCl and 5 mM DTT) and 3 washes with TT-buffer. […] The mixture was incubated at room temperature for 10 mm before starting the kinase reaction by adding 25 μl of 200 μM ATP in buffer A. This mixture was incubated with intermittent shaking at room temperature for 2 hours to overnight to allow (a) phosphorylation of the pEY substrate and (b) autophosphorylation of the immobilized kinases. Autophosphorylation and phosphorylation of the pEY was measured as described in Examples 7 and 8.
(§4) The ECL signal in control wells produced by tyrosine kinases was compared to the wells containing inhibitor compounds.

BTK = target: T4, BTK (Homo sapiens, UniProt Q06187); assay: Kinase inhibitor profiling, pEY phosphorylation; type: biochemical
T4 construct: specificity data for proteins generated from a library of eighteen full-length clones; host or cells: rabbit reticulocyte lysate, TnT coupled in vitro transcription/translation (cell-free)
T4 sequence (Q06187 whole entry): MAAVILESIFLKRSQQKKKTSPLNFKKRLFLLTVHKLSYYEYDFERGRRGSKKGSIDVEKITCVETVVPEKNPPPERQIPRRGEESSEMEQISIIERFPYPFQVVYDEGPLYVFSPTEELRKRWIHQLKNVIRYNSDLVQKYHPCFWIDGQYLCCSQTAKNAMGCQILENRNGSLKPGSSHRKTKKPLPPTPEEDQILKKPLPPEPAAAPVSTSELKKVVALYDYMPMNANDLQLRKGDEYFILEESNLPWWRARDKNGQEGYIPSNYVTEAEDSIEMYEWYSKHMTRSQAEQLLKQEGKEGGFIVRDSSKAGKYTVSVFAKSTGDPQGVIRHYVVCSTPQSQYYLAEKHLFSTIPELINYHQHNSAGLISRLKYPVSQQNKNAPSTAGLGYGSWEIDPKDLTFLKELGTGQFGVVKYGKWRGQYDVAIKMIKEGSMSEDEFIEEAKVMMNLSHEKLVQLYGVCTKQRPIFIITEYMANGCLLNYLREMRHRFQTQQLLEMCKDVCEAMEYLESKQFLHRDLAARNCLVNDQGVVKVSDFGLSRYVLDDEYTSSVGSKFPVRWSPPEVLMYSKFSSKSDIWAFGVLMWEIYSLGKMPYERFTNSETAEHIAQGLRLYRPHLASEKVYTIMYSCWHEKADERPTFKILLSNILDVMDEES
Procedure: as §2, §3, §4

| Compound | Average ECL signal, IkBa peptide [SEQ ID No. 1] [1] | Average ECL signal, c-Myc peptide [SEQ ID No. 4] [2] | Inhibition specificity towards pEY phosphorylation at 10X IC50, LCK (LCK) | Inhibition specificity towards pEY phosphorylation at 10X IC50, BTK (BTK) |
| --- | --- | --- | --- | --- |
| 3872466: IMAGE clone protein: mCBP [compound 3872466] | 371 | 351 |  |  |
| Cc1ccc(-c2nn(C(C)(C)C)c3ncnc(N)c23)cc1 [PP1] |  |  | M (medium inhibition (“M”=between 25 to 50% of the activity remaining)) |  |
| 3491843: IMAGE clone protein: βTRCP1 [compound 3491843] | 40879 | 2118 |  |  |
| COc1cc2ncnc(Nc3ccc(O)cc3)c2cc1OC [WHI-P131] |  |  | H (high inhibition (“H”=less than 25% of the activity remaining)) | M (medium inhibition (“M”=between 25 to 50% of the activity remaining)) |
| COc1cc2ncnc(Nc3ccc(Cl)cc3F)c2cc1OC [VEGFR inhibitor] |  |  | H (high inhibition (“H”=less than 25% of the activity remaining)) | M (medium inhibition (“M”=between 25 to 50% of the activity remaining)) |
| Cc1cc2ncc(-c3ccc(O)c(O)c3)nc2cc1C [AG-1433] |  |  |  | H (high inhibition (“H”=less than 25% of the activity remaining)) |
| COc1c(C=O)c(O)cc2c1C(=O)c1ccccc1C2=O [Damnacanthal] |  |  |  | H (high inhibition (“H”=less than 25% of the activity remaining)) |
| CC(C)(C)c1cc(C=C(C#N)C#N)cc(Br)c1O [AG-1024] |  |  |  | H (high inhibition (“H”=less than 25% of the activity remaining)) |
